Experimental data as given in patent publication US20030170829A1 (priority 2001, published 2003).
Entries after “also recorded” stand apart in the source; their conditions may differ. Read-outs that look alike come from different tables or passages of the source.

Key:
[1] = tested on: AFDH
[2] = tested on: AFDH; format: biochemical, Anthracobia melaloma; details: for Relative activity (%): None = 100
[3] = tested on: AFDH; remark: listed apart in the source
[4] = substrate 100 μl, 12.79 μmol/ml
[5] = substrate 130 μl, 16.63 μmol/ml
[6] = substrate 160 μl, 20.46 μmol/ml
[7] = substrate 180 μl, 23.02 μmol/ml
[8] = substrate 200 μl, 25.58 μmol/ml
[9] = substrate 230 μl, 29.42 μmol/ml
[10] = substrate 260 μl, 33.25 μmol/ml
[11] = substrate 300 μl, 38.37 μmol/ml
[12] = substrate 400 μl, 51.16 μmol/ml
[13] = substrate 450 μl, 57.56 μmol/ml
[14] = substrate 480 μl, 61.39 μmol/ml
[15] = substrate 100 μl, 24.75 μmol/ml
[16] = substrate 120 μl, 29.69 μmol/ml
[17] = substrate 150 μl, 37.12 μmol/ml
[18] = substrate 170 μl, 42.07 μmol/ml
[19] = substrate 200 μl, 49.49 μmol/ml
[20] = substrate 250 μl, 61.86 μmol/ml
[21] = substrate 300 μl, 74.24 μmol/ml

In the case of `O=C1CO[C@H](CO)[C@@H](O)[C@@H]1O` [AF, 1,5-anhydro-D-fructose], the Km ([1]; read-out: apparent Km (concentration that yielded half of the maximum activity), substrate AF, pH 6.7, 22 °C) was 12.6 mM, the “Activity units” value ([1]; substrate 5 μl, 0.64 μmol/ml) was 39.33 units and the OD263 ([1]; substrate 5 μl, 0.64 μmol/ml) was 0.059. The “Activity units” value ([1]; substrate 10 μl, 1.28 μmol/ml) was 62.67 units, the OD263 ([1]; substrate 10 μl, 1.28 μmol/ml) was 0.094 and the “Activity units” value ([1]; substrate 20 μl, 2.56 μmol/ml) was 101.33 units. The OD263 ([1]; substrate 20 μl, 2.56 μmol/ml) was 0.152, the “Activity units” value ([1]; substrate 30 μl, 3.84 μmol/ml) was 182.67 units and the OD263 ([1]; substrate 30 μl, 3.84 μmol/ml) was 0.274. For the same compound, the “Activity units” value ([1]; substrate 40 μl, 5.12 μmol/ml) was 210.67 units, the OD263 ([1]; substrate 40 μl, 5.12 μmol/ml) was 0.316 and the “Activity units” value ([1]; substrate 50 μl, 6.40 μmol/ml) was 218.67 units. The OD263 ([1]; substrate 50 μl, 6.40 μmol/ml) was 0.328, the “Activity units” value ([1]; substrate 60 μl, 0.46 μmol/ml) was 256.00 units and the OD263 ([1]; substrate 60 μl, 0.46 μmol/ml) was 0.384. For the same compound, the “Activity units” value ([1]; substrate 70 μl, 8.95 μmol/ml) was 327.33 units, the OD263 ([1]; substrate 70 μl, 8.95 μmol/ml) was 0.491 and the “Activity units” value [1, 4] was 412.00 units. For the same compound, the OD263 [1, 4] was 0.618, the “Activity units” value [1, 5] was 456.67 units and the OD263 [1, 5] was 0.685. For the same compound, the “Activity units” value [1, 6] was 511.33 units, the OD263 [1, 6] was 0.767 and the “Activity units” value [1, 7] was 549.33 units. For the same compound, the OD263 [1, 7] was 0.824, the “Activity units” value [1, 8] was 561.33 units and the OD263 [1, 8] was 0.842. The “Activity units” value [1, 9] was 594.67 units, the OD263 [1, 9] was 0.892 and the “Activity units” value [1, 10] was 609.33 units. The OD263 [1, 10] was 0.914, the “Activity units” value [1, 11] was 646.67 units and the OD263 [1, 11] was 0.97. The “Activity units” value [1, 12] was 738.67 units, the OD263 [1, 12] was 1.108 and the “Activity units” value [1, 13] was 767.33 units. For the same compound, the OD263 [1, 13] was 1.151, the “Activity units” value [1, 14] was 772.67 units and the OD263 [1, 14] was 1.159. For the same compound, the Vmax ([1]; substrate AF, pH 6.7, 22 °C) was 769 units.
For `[Ca+2].[Cl-].[Cl-]` [CaCl2], the “concentration found to increase the activity with a factor of two” value [2] was 10 mM, the “effect on AFDH activity” value [2] was “increased” and the Activity units ([2]; effector 5 mM) was 1245.0 units. It also gave an OD263 ([2]; effector 5 mM) of 0.747, an Activity units ([2]; effector 10 mM) of 1442.7 units and an OD263 ([2]; effector 10 mM) of 0.865. For the same compound, the Activity units ([2]; effector 15 mM) was 1455.0 units, the OD263 ([2]; effector 15 mM) was 0.873 and the Activity units ([2]; effector 20 mM) was 1531.7 units. It also gave an OD263 ([2]; effector 20 mM) of 0.919, an Activity units ([2]; effector 25 mM) of 1561.7 units and an OD263 ([2]; effector 25 mM) of 0.937. It also gave an Activity units ([2]; effector 30 mM) of 1601.7 units, an OD263 ([2]; effector 30 mM) of 0.961 and an Activity units ([2]; effector 40 mM) of 1473.3 units. It also gave an OD263 ([2]; effector 40 mM) of 0.884, an Activity units ([2]; effector 50 mM) of 1466.7 units and an OD263 ([2]; effector 50 mM) of 0.880.
Compound `O=CC(=O)[C@@H](O)[C@H](O)[C@H](O)CO` [D-glucosone] has a Km ([3]; read-out: apparent Km (concentration that yielded half of the maximum activity), substrate D-glucosone, pH 6.7, 22 °C) of 27.6 mM, an Activity units ([3]; substrate 5 μl, 1.24 μmol/ml) of 33.33 units and an OD265 ([3]; substrate 5 μl, 1.24 μmol/ml) of 0.050. For the same compound, the Activity units ([3]; substrate 10 μl, 2.47 μmol/ml) was 36.00 units, the OD265 ([3]; substrate 10 μl, 2.47 μmol/ml) was 0.054 and the Activity units ([3]; substrate 20 μl, 4.95 μmol/ml) was 57.33 units. For the same compound, the OD265 ([3]; substrate 20 μl, 4.95 μmol/ml) was 0.086, the Activity units ([3]; substrate 30 μl, 7.42 μmol/ml) was 79.30 units and the OD265 ([3]; substrate 30 μl, 7.42 μmol/ml) was 0.119. For the same compound, the Activity units ([3]; substrate 40 μl, 9.90 μmol/ml) was 101.33 units, the OD265 ([3]; substrate 40 μl, 9.90 μmol/ml) was 0.152 and the Activity units ([3]; substrate 50 μl, 12.37 μmol/ml) was 114.00 units. It also gave an OD265 ([3]; substrate 50 μl, 12.37 μmol/ml) of 0.171, an Activity units ([3]; substrate 60 μl, 14.85 μmol/ml) of 140.67 units and an OD265 ([3]; substrate 60 μl, 14.85 μmol/ml) of 0.211. It also gave an Activity units ([3]; substrate 70 μl, 17.32 μmol/ml) of 164.67 units, an OD265 ([3]; substrate 70 μl, 17.32 μmol/ml) of 0.247 and an Activity units ([3]; substrate 80 μl, 19.80 μmol/ml) of 180.67 units. The OD265 ([3]; substrate 80 μl, 19.80 μmol/ml) was 0.271, the Activity units ([3]; substrate 90 μl, 22.27 μmol/ml) was 215.30 units and the OD265 ([3]; substrate 90 μl, 22.27 μmol/ml) was 0.323. For the same compound, the Activity units [3, 15] was 230.67 units, the OD265 [3, 15] was 0.346 and the Activity units [3, 16] was 262.67 units. For the same compound, the OD265 [3, 16] was 0.379, the Activity units [3, 17] was 310.20 units and the OD265 [3, 17] was 0.394. The Activity units [3, 18] was 352.62 units, the OD265 [3, 18] was 0.529 and the Activity units [3, 19] was 394.62 units. For the same compound, the OD265 [3, 19] was 0.592, the Activity units [3, 20] was 407.33 units and the OD265 [3, 20] was 0.611. For the same compound, the Activity units [3, 21] was 414.67 units, the OD265 [3, 21] was 0.622 and the Vmax ([3]; substrate D-glucosone, pH 6.7, 22 °C) was 416 units.
With `O[C@@H](CS)[C@@H](O)CS` [DTT] the “effect on AFDH activity” value [2] was “inhibited” and the “Relative activity (%)” value ([2]; inhibitor 10 mM) was 57%.
For `O=C(O)CN(CCN(CC(=O)O)CC(=O)O)CC(=O)O` [EDTA], the “effect on AFDH activity” value [2] was “inhibited”, the “Relative activity (%)” value ([2]; inhibitor 10 mM) was 59% and the “Relative activity (%)” value ([2]; inhibitor 50 mM) was 16%.
In the case of `[Cl-].[Cl-].[Mg+2]` [MgCl2], the “concentration found to increase the activity with a factor of two” value [2] was 25 mM, the “effect on AFDH activity” value [2] was “increased” and the Activity units ([2]; effector 5 mM) was 1053.3 units. The OD263 ([2]; effector 5 mM) was 0.632, the Activity units ([2]; effector 10 mM) was 1228.3 units and the OD263 ([2]; effector 10 mM) was 0.737. The Activity units ([2]; effector 15 mM) was 1255.0 units, the OD263 ([2]; effector 15 mM) was 0.753 and the Activity units ([2]; effector 20 mM) was 1295.0 units. For the same compound, the OD263 ([2]; effector 20 mM) was 0.777, the Activity units ([2]; effector 25 mM) was 1316.7 units and the OD263 ([2]; effector 25 mM) was 0.790. For the same compound, the Activity units ([2]; effector 30 mM) was 1291.7 units, the OD263 ([2]; effector 30 mM) was 0.775 and the Activity units ([2]; effector 40 mM) was 1243.3 units. The OD263 ([2]; effector 40 mM) was 0.746, the Activity units ([2]; effector 50 mM) was 1186.7 units and the OD263 ([2]; effector 50 mM) was 0.712.
With `[Cl-].[Na+]` [NaCl] the “concentration found to increase the activity with a factor of two” value [2] was 50 mM, the Activity units ([2]; NaCl 0.05 M) was 1263.3 units and the OD263 ([2]; NaCl 0.05 M) was 0.758. The Activity units ([2]; NaCl 0.1 M) was 1348.3 units, the OD263 ([2]; NaCl 0.1 M) was 0.809 and the Activity units ([2]; NaCl 0.15 M) was 1381.7 units. For the same compound, the OD263 ([2]; NaCl 0.15 M) was 0.829, the Activity units ([2]; NaCl 0.2 M) was 1415.0 units and the OD263 ([2]; NaCl 0.2 M) was 0.849. The Activity units ([2]; NaCl 0.3 M) was 1453.3 units, the OD263 ([2]; NaCl 0.3 M) was 0.872 and the Activity units ([2]; NaCl 0.4 M) was 1338.3 units. For the same compound, the OD263 ([2]; NaCl 0.4 M) was 0.803, the Activity units ([2]; NaCl 0.5 M) was 1301.7 units and the OD263 ([2]; NaCl 0.5 M) was 0.781. The Activity units ([2]; NaCl 0.6 M) was 1286.7 units, the OD263 ([2]; NaCl 0.6 M) was 0.772 and the Activity units ([2]; NaCl 0.7 M) was 1271.7 units. The OD263 ([2]; NaCl 0.7 M) was 0.763, the Activity units ([2]; NaCl 0.8 M) was 1223.3 units and the OD263 ([2]; NaCl 0.8 M) was 0.734. For the same compound, the Activity units ([2]; NaCl 0.9 M) was 1141.7 units, the OD263 ([2]; NaCl 0.9 M) was 0.685 and the “effect on AFDH activity” value ([2]; listed as Na^+) was “increased; also recorded: positive effect”.
With `[Cl-].[Cl-].[Zn+2]` [ZnCl2] the “effect on AFDH activity” value [2] was “inhibited”, the Activity units ([2]; effector 5 mM) was 551.7 units and the OD263 ([2]; effector 5 mM) was 0.331. The Activity units ([2]; effector 10 mM) was 435.0 units, the OD263 ([2]; effector 10 mM) was 0.261 and the Activity units ([2]; effector 15 mM) was 315.0 units. For the same compound, the OD263 ([2]; effector 15 mM) was 0.189, the Activity units ([2]; effector 20 mM) was 241.7 units and the OD263 ([2]; effector 20 mM) was 0.145. The Activity units ([2]; effector 25 mM) was 220.0 units, the OD263 ([2]; effector 25 mM) was 0.132 and the Activity units ([2]; effector 30 mM) was 201.7 units. The OD263 ([2]; effector 30 mM) was 0.121, the Activity units ([2]; effector 40 mM) was 158.3 units and the OD263 ([2]; effector 40 mM) was 0.095. The Activity units ([2]; effector 50 mM) was 135.0 units, the OD263 ([2]; effector 50 mM) was 0.081 and the “Relative activity (%)” value ([2]; inhibitor 10 mM) was 52.52%.
